The test system of test [1] is serine hydrolases in the mouse brain proteome (MBP). The test is described as follows: Multiplex ABPP in mouse brain proteome. The test is classed as biochemical. As to conditions: for labeling selectivity in ABPP (covalent probes): mouse brain homogenates, broad range of concentrations; for selectivity in competitive ABPP (reversible probes): mouse brain proteome, membrane and cytosolic fraction, 1 μM. The protocol:
K = [L][P] = 0.5 [L]T (FP50 − 0.5 [L]T) = FP − 0.5 [L] […]
Mouse brain sample preparation
Mouse tissues were isolated according to guidelines approved by the ethical committee of Leiden University. Male mouse brain (27 weeks old) was homogenized with glass beads (2x 1 min, bullet blender, speed 8) using cold lysis buffer (20 mM Hepes pH 7.2, 1 mM MgCl 2, 2 U/mL Benzonase). The membrane and cytosol were separated by centrifugation. The membrane fraction was resuspended in Hepes/DTT buffer. Protein concentration was determined with Bradford Assay, and samples were diluted to a final concentration of 2.0 mg/mL. Samples were snap -frozen in liquid nitrogen and stored at -80 °C until further use.
Lysate (19 µL, 2 µg/µL) was thawed on ice. For comparative ABPP (irreversible probes), 1 µL of probe (20x stock in DMSO) or pure DMSO was added to the sample, vortexed briefly, and in cubated for 30 minutes at RT. For competitive ABPP (reversible probes), 0.5 µL of the reversible probe (40x stock in DMSO) or pure DMSO (as vehicle) was added to the sample, vortexed briefly, and incubated for 30 […]
minutes at RT. Subsequently, 0.5 µL MB064 (40x stock in DMSO) was added to the proteome sample, vortexed briefly, and incubated for 10 minutes at RT, after which 0.5 µL FP-Bodipy-FL (40x stock in DMSO) was added, vortexed briefly and incubated for 10 minutes at RT. The final volume was 20 - 20.5 µL (5 - 7.5% DMSO). The reaction was quenched by the addition of 7.5 µL of 4*Laemmli-buffer (final concentrations: 60 mM Tris (pH 6.8), 2% (w/v) SDS, 10% (v/v) glycerol, 1.25% (v/v) β-mercaptoethanol, 0.01% (v/v) bromophenol blue). 10 µL (14 µg protein) of the quenched reaction mixture was resolved on 10% acrylamide SDS-PAGE (180 V, 75 min). Fluorescence was measured using a Biorad ChemiDoc MP system (fluorescence channels Cy2, Cy3, Cy5). Gels were then stained using coomassie staining and imaged for protein loading control. Labeling of the respective proteins via MB064 and FP-BODIPY was visualized in two separate channels. […]
Activity based protein profiling (ABPP)
PBMCs were thawed, washed with 1 x PBS and equal amounts of cells were exposed to DMSO (D2650; Sigma-Aldrich) or MAGL inhibitor PF (PF-06795071) in DMSO for 30 min at room temperature with concentrations ranging from 1 nM to 1000 nM. Cells were washed with 1 x PBS and lysed in ice -cold lysis buffer (ab156035; Abcam), lysates were centrifuged at 14,000 x g for 15 minutes at 4°C and supernatants were collected. For ABPP experiments, cell lysates containing equal amounts of protein were incubated with the appropriate concentration of activity -based probe for 30 min at room temperature. The reaction was quenched for 30 min by adding SDS -PAGE loading buffer (NP0007, Thermo). Samples were then separated by SDS-PAGE and bands were detected ChemiDoc Imager (Bio-Rad Laboratories). Following detection, gels were stained with SimplyBlue™ SafeStain (LC6060, Thermo) for 1 hour with gentle agitation and excess stain was removed by destaining in ddH2O for 1 h with gentle agitation. Gels were imaged and protein bands were quantified using Image Lab software (Bio-Rad Laboratories).

In test [2] the target is PDE3B (h) (Homo sapiens, UniProt Q13370). The test is described as follows: PDE3B (h). As to conditions: read-out: Inhibition PDE3B (h).
Chain of PDE3B (h) (Q13370 whole entry): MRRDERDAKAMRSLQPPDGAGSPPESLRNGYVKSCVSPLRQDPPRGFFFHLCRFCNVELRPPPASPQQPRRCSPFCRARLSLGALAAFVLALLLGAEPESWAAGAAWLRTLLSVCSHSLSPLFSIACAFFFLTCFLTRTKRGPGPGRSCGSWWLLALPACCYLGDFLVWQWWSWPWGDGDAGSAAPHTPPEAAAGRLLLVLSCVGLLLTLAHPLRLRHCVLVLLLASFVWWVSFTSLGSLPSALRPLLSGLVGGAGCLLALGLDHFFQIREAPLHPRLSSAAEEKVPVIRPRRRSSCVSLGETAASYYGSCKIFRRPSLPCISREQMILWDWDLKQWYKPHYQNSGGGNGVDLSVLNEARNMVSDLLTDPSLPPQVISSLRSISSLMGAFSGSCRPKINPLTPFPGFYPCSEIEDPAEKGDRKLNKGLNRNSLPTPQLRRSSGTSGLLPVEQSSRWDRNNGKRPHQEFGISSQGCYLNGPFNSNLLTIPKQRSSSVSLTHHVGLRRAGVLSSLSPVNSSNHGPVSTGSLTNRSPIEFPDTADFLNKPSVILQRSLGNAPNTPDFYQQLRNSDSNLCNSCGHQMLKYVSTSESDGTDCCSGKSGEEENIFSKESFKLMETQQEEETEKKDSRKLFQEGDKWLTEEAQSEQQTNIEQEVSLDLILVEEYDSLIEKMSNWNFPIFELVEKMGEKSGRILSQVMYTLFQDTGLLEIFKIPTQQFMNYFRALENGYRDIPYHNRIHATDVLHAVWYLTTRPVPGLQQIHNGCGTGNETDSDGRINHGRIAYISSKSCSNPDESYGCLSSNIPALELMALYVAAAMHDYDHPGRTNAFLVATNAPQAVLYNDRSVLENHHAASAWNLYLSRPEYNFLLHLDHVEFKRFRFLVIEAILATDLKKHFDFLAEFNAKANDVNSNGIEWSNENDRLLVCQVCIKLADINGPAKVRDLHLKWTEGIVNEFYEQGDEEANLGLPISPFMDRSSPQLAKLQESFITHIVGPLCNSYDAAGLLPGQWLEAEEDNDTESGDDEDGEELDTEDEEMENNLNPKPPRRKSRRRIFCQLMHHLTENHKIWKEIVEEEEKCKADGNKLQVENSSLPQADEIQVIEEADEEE
Test [3] has as its target CDK2 (h) (cycA) (Homo sapiens, UniProt P24941). The test is described as follows: CDK2 (h) (cycA). To be noted: read-out: Inhibition CDK2 (h) (cycA).
The target of test [4] is CB1 (h) (Homo sapiens, UniProt P21554). Kind of test: CB1 (h) (agonist radioligand). To be noted: read-out: Inhibition CB1 (h) (agonist radioligand).
Chain of CB1 (h) (P21554 whole entry): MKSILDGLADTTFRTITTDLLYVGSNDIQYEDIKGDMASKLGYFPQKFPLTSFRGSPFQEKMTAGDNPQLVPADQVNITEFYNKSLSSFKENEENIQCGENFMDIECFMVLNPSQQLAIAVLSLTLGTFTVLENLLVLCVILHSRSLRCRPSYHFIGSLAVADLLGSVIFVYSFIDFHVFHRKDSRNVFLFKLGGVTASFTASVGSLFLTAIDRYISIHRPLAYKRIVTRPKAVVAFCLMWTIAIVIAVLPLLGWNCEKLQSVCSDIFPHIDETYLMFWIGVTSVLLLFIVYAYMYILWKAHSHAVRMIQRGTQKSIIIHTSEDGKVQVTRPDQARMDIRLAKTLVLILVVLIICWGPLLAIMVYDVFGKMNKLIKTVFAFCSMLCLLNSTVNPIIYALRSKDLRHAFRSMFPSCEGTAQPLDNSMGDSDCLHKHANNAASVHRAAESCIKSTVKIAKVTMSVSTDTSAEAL
Test [5] concerns the target T1, alpha1A (h) (Homo sapiens, UniProt P35348).
T1 sequence (P35348 1-466): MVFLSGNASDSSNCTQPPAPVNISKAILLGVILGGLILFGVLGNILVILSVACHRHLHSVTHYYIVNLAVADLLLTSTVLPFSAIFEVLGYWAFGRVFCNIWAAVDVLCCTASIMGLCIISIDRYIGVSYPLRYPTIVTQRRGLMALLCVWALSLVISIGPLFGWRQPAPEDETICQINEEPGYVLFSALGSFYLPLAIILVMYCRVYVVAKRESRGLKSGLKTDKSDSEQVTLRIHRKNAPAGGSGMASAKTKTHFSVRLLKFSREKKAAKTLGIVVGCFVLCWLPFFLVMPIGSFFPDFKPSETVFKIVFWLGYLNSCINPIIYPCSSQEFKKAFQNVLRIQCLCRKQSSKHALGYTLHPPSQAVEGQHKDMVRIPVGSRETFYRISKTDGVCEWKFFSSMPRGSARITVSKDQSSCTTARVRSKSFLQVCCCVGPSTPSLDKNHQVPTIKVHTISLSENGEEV
The test is described as follows: alpha1A (h) (antagonist radioligand). As to conditions: read-out: Inhibition alpha1A (h) (antagonist radioligand).

Test [6] concerns the target T2, MAO-A (h) monoamine oxydase A (Homo sapiens, UniProt P21397).
T2 sequence (P21397 1-527): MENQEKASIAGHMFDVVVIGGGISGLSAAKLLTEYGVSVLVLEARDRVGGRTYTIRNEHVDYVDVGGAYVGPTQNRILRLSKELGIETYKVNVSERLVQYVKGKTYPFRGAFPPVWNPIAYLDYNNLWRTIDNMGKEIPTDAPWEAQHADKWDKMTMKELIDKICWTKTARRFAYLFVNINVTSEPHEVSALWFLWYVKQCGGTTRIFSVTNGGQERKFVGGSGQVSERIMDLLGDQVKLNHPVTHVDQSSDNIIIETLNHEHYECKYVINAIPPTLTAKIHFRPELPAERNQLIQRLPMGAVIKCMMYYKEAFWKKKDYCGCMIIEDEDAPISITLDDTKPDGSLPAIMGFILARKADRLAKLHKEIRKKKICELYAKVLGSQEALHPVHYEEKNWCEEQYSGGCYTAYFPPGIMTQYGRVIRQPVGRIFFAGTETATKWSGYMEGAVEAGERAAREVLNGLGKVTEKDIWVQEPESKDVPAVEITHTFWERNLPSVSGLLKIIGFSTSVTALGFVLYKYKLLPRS
The test is described as follows: MAO-A (h) monoamine oxydase A, enzymatic assay. To be noted: read-out: Inhibition MAO-A (h) monoamine oxydase A, enzymatic assay.

As a reminder, the inhibition is the relative decrease from the control value, in per cent. As to `O=C(O[C@H](CO)C(F)(F)F)N1CC2(CC(CC3=C4C=CC=[N+]4[B-](F)(F)n4cccc43)C2)C1` [Compound 1], the “labeling selectivity in ABPP (covalent probes)” value (from here on “labeling selectivity in ABPP”) in test [1] is reported as “only selective irreversible labeling of the two MAGL isoforms”. Moreover, the inhibition at 10 µM in test [2] turned out to be 15.9%; in test [3] it was 7.8%; in test [4], 4.4%; in test [5], 7.6%; in test [6], 22.6%.

In the case of `O=C(OC(C(F)(F)F)C(F)(F)F)N1CC2(CC(CC3=C4C=CC=[N+]4[B-](F)(F)n4cccc43)C2)C1` [Compound 2], the “labeling selectivity in ABPP” value in test [1] is “only selective irreversible labeling of the two MAGL isoforms”. For the same compound, the inhibition at 10 µM in test [2] is 6.3%; in test [3], 6.3%; in test [4], -16.1%; in test [5], -4.6%; in test [6] it was -1.3%.

Turning to `O=C(OC(C(F)(F)F)C(F)(F)F)N1CC2(CC(CC3=C4C=CC(c5ccc[nH]5)=[N+]4[B-](F)(F)n4cccc43)C2)C1` [Compound 2a], the “labeling selectivity in ABPP” value in test [1] is “only selective irreversible labeling of the two MAGL isoforms”. Further, the inhibition at 10 µM in test [2] was 12.6%; in test [3], -5.8%; in test [4] it was 6.3%; in test [5], -3.4%; in test [6] it was -3%.

Regarding `O=C1CO[C@H]2CCN(C(=O)N3CC4(CC(CC5=C6C=CC=[N+]6[B-](F)(F)n6cccc65)C4)C3)C[C@H]2N1` [Compound 4], the “selectivity in competitive ABPP (reversible probes)” value (“selectivity in competitive ABPP” for short) in test [1] is “no other potential off-target detectable”.

For the compound `O=C1CO[C@H]2CCN(C(=O)N3CC4(CC(CC5=C6C=CC(c7ccc[nH]7)=[N+]6[B-](F)(F)n6cccc65)C4)C3)C[C@H]2N1` [Compound 4a], the “selectivity in competitive ABPP” value in test [1] was “no other potential off-target detectable”. Besides, the inhibition at 10 µM was 13% in test [2]; -8.3% in test [3]; -2.7% in test [4]; 45.5% in test [5]; 4.3% in test [6].

For `O=C(N1CC2(CC(CC3=C4C=CC=[N+]4[B-](F)(F)n4cccc43)C2)C1)N1CC2(CC(n3cnc(C4CC4)n3)C2)C1` [Compound 5], the “selectivity in competitive ABPP” value in test [1] was “no other potential off-target detectable”. Also, the inhibition at 10 µM in test [2] was found to be 10.7%; in test [3], 6.5%; in test [4], 9.9%; in test [5], 2.1%; in test [6] it was 4.4%.

These data come from PMC11951083, “Highly Specific Miniaturized Fluorescent Monoacylglycerol Lipase Probes Enable Translational Research” (Journal of the American Chemical Society, 2025).
